Data published in ChEMBL document CHEMBL6092203, “Discovery of Novel PROTAC-Based HPK1 Degraders with High Potency and Selectivity for Cancer Immunotherapy” (J Med Chem, 2024).
pIC50: −log10 of the molar value.

Legend:
[1] = target: T1, Protein cereblon/Mitogen-activated protein kinase kinase kinase kinase 1 (Homo sapiens, UniProt Q92918+Q96SW2); assay: PROTAC activity at CRBN/HPK1 in human Jurkat cells assessed as maximum degradation incubated for 24 hrs by Western blotting analysis; format: cell-based
Target sequence in this assay (Q92918 whole entry, looked up): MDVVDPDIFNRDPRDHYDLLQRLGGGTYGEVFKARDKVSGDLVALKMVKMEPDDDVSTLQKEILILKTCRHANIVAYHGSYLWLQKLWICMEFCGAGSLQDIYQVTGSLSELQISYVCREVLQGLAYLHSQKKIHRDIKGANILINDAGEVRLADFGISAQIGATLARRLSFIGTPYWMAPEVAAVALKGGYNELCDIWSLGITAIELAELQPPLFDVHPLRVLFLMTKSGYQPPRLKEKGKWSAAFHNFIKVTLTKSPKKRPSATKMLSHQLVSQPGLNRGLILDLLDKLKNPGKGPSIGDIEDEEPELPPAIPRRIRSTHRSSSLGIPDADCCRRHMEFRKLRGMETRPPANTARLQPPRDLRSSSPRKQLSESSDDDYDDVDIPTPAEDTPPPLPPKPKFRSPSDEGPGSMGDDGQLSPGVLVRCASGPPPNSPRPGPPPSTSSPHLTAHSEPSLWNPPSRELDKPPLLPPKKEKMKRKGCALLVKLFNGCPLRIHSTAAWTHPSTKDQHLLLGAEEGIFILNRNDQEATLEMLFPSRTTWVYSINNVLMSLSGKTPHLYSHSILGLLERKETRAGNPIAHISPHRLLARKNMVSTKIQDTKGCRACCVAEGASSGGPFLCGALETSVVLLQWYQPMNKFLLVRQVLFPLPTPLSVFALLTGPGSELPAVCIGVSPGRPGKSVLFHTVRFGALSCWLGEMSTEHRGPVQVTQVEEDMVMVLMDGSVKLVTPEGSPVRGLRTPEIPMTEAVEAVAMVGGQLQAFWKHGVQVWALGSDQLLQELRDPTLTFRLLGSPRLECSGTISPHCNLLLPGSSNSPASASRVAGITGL
Target sequence in this assay (Q96SW2 whole entry, looked up): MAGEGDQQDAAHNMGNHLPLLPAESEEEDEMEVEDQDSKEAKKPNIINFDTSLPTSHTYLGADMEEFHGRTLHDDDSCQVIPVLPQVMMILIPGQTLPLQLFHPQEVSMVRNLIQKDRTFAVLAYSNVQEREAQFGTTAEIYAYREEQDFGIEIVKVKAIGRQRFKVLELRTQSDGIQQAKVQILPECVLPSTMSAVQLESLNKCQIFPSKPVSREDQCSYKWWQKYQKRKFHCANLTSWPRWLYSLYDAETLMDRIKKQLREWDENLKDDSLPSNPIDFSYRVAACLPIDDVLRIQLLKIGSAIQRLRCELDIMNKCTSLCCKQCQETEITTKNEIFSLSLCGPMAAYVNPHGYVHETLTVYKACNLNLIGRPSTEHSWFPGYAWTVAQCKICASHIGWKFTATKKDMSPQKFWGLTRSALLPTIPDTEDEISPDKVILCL

[2] = target: T1, Protein cereblon/Mitogen-activated protein kinase kinase kinase kinase 1; assay: PROTAC activity at CRBN/HPK1 in human Jurkat cells incubated for 24 hrs by Western blotting analysis; format: cell-based
Target sequence in this assay (Q92918 whole entry): as the sequence (Q92918 whole entry, looked up) above
Target sequence in this assay (Q96SW2 whole entry): as the sequence (Q96SW2 whole entry, looked up) above

[3] = AUC in mouse at 2 mg/kg, iv measured upto 24 hrs by LC-MS analysis; format: ADME, organism-based; details: in vivo
[4] = Oral bioavailability in mouse at 10 mg/kg measured upto 24 hrs by LC-MS analysis; format: ADME, organism-based; details: in vivo
[5] = AUC in mouse at 10 mg/kg, po measured upto 24 hrs by LC-MS analysis; format: ADME, organism-based; details: in vivo
[6] = Apparent volume of distribution in mouse at 2 mg/kg, iv measured upto 24 hrs by LC-MS analysis; format: ADME, organism-based; details: in vivo
[7] = Clearance in mouse at 2 mg/kg, iv measured upto 24 hrs by LC-MS analysis; format: ADME, organism-based; details: in vivo
[8] = Cmax in mouse at 10 mg/kg, po measured upto 24 hrs by LC-MS analysis; format: ADME, organism-based; details: in vivo
[9] = Half-life in mouse at 10 mg/kg measured upto 24 hrs by LC-MS analysis; format: ADME, organism-based; details: in vivo
[10] = Half-life in mouse at 2 mg/kg, iv measured upto 24 hrs by LC-MS analysis; format: ADME, organism-based; details: in vivo
[11] = target: Mitogen-activated protein kinase kinase kinase kinase 1 (Homo sapiens, UniProt Q92918); assay: Inhibition of HPK1 (unknown origin)
Chain of Mitogen-activated protein kinase kinase kinase kinase 1 (Q92918 whole entry): as the sequence (Q92918 whole entry, looked up) above

[12] = target: T2, Mitogen-activated protein kinase kinase kinase kinase 3 (Homo sapiens, UniProt Q8IVH8); assay: Inhibition of GLK (unknown origin)
T2 sequence (Q8IVH8 whole entry): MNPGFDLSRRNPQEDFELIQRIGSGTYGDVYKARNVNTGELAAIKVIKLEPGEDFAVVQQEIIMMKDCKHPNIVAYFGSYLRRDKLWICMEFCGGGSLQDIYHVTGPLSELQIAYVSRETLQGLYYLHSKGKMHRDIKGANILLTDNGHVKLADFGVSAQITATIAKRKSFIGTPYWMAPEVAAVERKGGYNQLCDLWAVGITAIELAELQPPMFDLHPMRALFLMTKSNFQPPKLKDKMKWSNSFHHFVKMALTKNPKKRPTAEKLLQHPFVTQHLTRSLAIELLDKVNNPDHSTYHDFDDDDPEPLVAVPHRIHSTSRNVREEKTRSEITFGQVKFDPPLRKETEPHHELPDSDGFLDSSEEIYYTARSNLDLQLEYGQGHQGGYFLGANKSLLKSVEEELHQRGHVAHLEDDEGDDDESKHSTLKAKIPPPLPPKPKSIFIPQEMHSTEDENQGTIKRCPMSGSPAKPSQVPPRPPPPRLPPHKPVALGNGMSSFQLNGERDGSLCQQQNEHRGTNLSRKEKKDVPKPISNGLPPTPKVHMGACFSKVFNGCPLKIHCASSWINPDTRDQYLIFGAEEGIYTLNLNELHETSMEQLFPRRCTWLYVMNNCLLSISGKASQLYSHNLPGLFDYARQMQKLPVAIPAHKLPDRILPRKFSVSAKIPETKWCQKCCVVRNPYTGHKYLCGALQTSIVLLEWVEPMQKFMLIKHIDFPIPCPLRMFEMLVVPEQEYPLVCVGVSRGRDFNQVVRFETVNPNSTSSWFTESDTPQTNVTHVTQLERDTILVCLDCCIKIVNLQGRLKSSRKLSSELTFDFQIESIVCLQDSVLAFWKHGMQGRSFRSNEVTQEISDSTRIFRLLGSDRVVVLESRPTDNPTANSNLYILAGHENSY

Emax [1] [%] | DC50 [2] [µM] | further results | SMILES
81 | 0.0524 | – | CCN1CCC(n2cc(-c3c[nH]c4ncc(-c5ccc(N6CCC(C)(CN7CCN(C(=O)c8ccc(Cl)c(N9CCC(=O)NC9=O)c8)CC7)CC6)cc5)nc34)cn2)CC1
84 | 0.083 | – | O=C1CCN(c2cc(C(=O)N3CCC(CC4CCN(c5ccc(-c6cnc7[nH]cc(-c8cnn([C@@H]9CCOC9)c8)c7n6)cn5)CC4)CC3)ccc2Cl)C(=O)N1
78 | 0.0053 | AUC at 24 h [3]: 7.4 µg·h/mL; bioavailability [4]: 25.1%; AUC at 24 h [5]: 9.2 µg·h/mL; Vz [6]: 0.917 L/kg; clearance [7]: 0.27 L/h/kg; Cmax [8]: 4.68 µg/mL; half-life [9]: 3.18 h; half-life [10]: 2.35 h | O=C1CCN(c2cc(C(=O)N3CCC(CC4CCN(c5ccc(-c6cnc7[nH]cc(-c8cnn(CCF)c8)c7n6)cn5)CC4)CC3)ccc2Cl)C(=O)N1
84 | 0.029 | – | O=C1CCN(c2cc(C(=O)N3CCC(CC4CCN(c5ccc(-c6cnc7[nH]cc(-c8cnn(CCO)c8)c7n6)cn5)CC4)CC3)ccc2Cl)C(=O)N1
66 | 0.0235 | – | CCN1CCC(n2cc(-c3c[nH]c4ncc(-c5ccc(N6CCC(CC7CCN(C(=O)c8ccc(Cl)c(N9CCC(=O)NC9=O)c8)CC7C)CC6)cc5)nc34)cn2)CC1 (stereo not given)
52 | 0.632 | – | O=C1CCN(c2cc(C(=O)N3CCC(CC4CCN(c5ccc(-c6cnc7[nH]cc(-c8cnn(CC9CC9)c8)c7n6)cn5)CC4)CC3)ccc2Cl)C(=O)N1
58 | 0.23 | – | CCN1CCC(n2cc(-c3c[nH]c4ncc(-c5ccc(N6CCC(F)(CN7CCN(C(=O)c8ccc(Cl)c(N9CCC(=O)NC9=O)c8)CC7)CC6)cc5)nc34)cn2)CC1
93 | 0.0012 | AUC at 24 h [3]: 0.874 µg·h/mL; bioavailability [4]: 6.67%; AUC at 24 h [5]: 0.295 µg·h/mL; Vz [6]: 1.03 L/kg; clearance [7]: 1.65 L/h/kg; Cmax [8]: 0.0816 µg/mL; half-life [10]: 4.63 h | CCN1CCC(n2cc(-c3c[nH]c4ncc(-c5ccc(N6CCC(CC7CCN(C(=O)c8ccc(Cl)c(N9CCC(=O)NC9=O)c8)CC7)CC6)nc5)nc34)cn2)CC1
93 | 0.0093 | AUC at 24 h [3]: 4.03 µg·h/mL; bioavailability [4]: 17.7%; Emax ([1]; tested as the 2H-labelled form): 89%; AUC at 24 h [5]: 2.21 µg·h/mL; Vz [6]: 0.701 L/kg; clearance [7]: 0.496 L/h/kg; Cmax [8]: 0.84 µg/mL; half-life [9]: 3.35 h; half-life [10]: 0.98 h | Cn1cc(-c2c[nH]c3ncc(-c4ccc(N5CCC(CC6CCN(C(=O)c7ccc(Cl)c(N8CCC(=O)NC8=O)c7)CC6)CC5)nc4)nc23)cn1
– | – | pIC50 [11]: 8.57; pIC50 [12]: 7.20 | CCN1CCC(n2cc(-c3c[nH]c4ncc(-c5cnc(OCC6CCOCC6)c(F)c5)nc34)cn2)CC1
92 | 0.0329 | – | O=C1CCN(c2cc(C(=O)N3CCC(CC4CCN(c5ccc(-c6cnc7[nH]cc(-c8cn[nH]c8)c7n6)cn5)CC4)CC3)ccc2Cl)C(=O)N1
76 | 0.0306 | – | COCCn1cc(-c2c[nH]c3ncc(-c4ccc(N5CCC(CC6CCN(C(=O)c7ccc(Cl)c(N8CCC(=O)NC8=O)c7)CC6)CC5)nc4)nc23)cn1
52 | 0.386 | – | CCN1CCC(n2cc(-c3c[nH]c4ncc(-c5ccc(N6CCC(OC7CCN(C(=O)c8ccc(Cl)c(N9CCC(=O)NC9=O)c8)CC7)CC6)cc5)nc34)cn2)CC1
63 | 0.176 | – | CCN1CCC(n2cc(-c3c[nH]c4ncc(-c5ccc(N6CCC(CC7CCN(C(=O)c8ccc(Cl)c(N9CCC(=O)NC9=O)c8)CC7)CC6)c(F)c5)nc34)cn2)CC1
– | 0.0127 | – | [2H]C([2H])([2H])n1cc(-c2c[nH]c3ncc(-c4ccc(N5CCC(CC6CCN(C(=O)c7ccc(Cl)c(N8CCC(=O)NC8=O)c7)CC6)CC5)nc4)nc23)cn1
81 | 0.0187 | – | O=C1CCN(c2cc(C(=O)N3CCC(CC4CCN(c5ccc(-c6cnc7[nH]cc(-c8cnn(CC(F)F)c8)c7n6)cn5)CC4)CC3)ccc2Cl)C(=O)N1
73 | 0.0293 | – | CCN1CCC(n2cc(-c3c[nH]c4ncc(-c5ccc(N6CCC(OC7CCN(C(=O)c8ccc(Cl)c(N9CCC(=O)NC9=O)c8)CC7)CC6)c(C)c5)nc34)cn2)CC1
87 | 0.0292 | – | CCn1cc(-c2c[nH]c3ncc(-c4ccc(N5CCC(CC6CCN(C(=O)c7ccc(Cl)c(N8CCC(=O)NC8=O)c7)CC6)CC5)nc4)nc23)cn1
86 | 0.055 | – | CCN1CCC(n2cc(-c3c[nH]c4ncc(-c5cnc(OCCNC(=O)c6ccc(Cl)c(N7CCC(=O)NC7=O)c6)c(C)c5)nc34)cn2)CC1
53 | 0.616 | – | CCN1CCC(n2cc(-c3c[nH]c4ncc(-c5ccc(N6CCC(CC7CCN(C(=O)c8ccc(C)c(N9CCC(=O)NC9=O)c8)CC7)CC6)cc5)nc34)cn2)CC1
56 | 0.385 | – | CCN1CCC(n2cc(-c3c[nH]c4ncc(-c5ccc(N6CCC(CC7CCCN(C(=O)c8ccc(Cl)c(N9CCC(=O)NC9=O)c8)CC7)CC6)nc5)nc34)cn2)CC1 (stereo not given)
67 | 0.0239 | – | O=C1CCN(c2cc(C(=O)N3CCC(CC4CCN(c5ccc(-c6cnc7[nH]cc(-c8cnn(C(F)F)c8)c7n6)cn5)CC4)CC3)ccc2Cl)C(=O)N1
64 | 0.214 | – | CC(C)(C#N)n1cc(-c2c[nH]c3ncc(-c4ccc(N5CCC(CC6CCN(C(=O)c7ccc(Cl)c(N8CCC(=O)NC8=O)c7)CC6)CC5)nc4)nc23)cn1
77 | 0.0021 | – | CCN1CCC(n2cc(-c3c[nH]c4ncc(-c5ccc(N6CCC(CN7CCN(C(=O)c8ccc(Cl)c(N9CCC(=O)NC9=O)c8)CC7)CC6)nc5)nc34)cn2)CC1
78 | 0.0072 | – | CCN1CCC(n2cc(-c3c[nH]c4ncc(-c5ccc(N6CCC(OC7CCN(C(=O)c8ccc(Cl)c(N9CCC(=O)NC9=O)c8)CC7)CC6)c(F)c5)nc34)cn2)CC1
87 | 0.0523 | – | O=C1CCN(c2cc(C(=O)N3CCC(CC4CCN(c5ccc(-c6cnc7[nH]cc(-c8cnn(C9CC9)c8)c7n6)cn5)CC4)CC3)ccc2Cl)C(=O)N1
